Results: PubChem BioAssay AID248 (DTP/NCI, 2004)
Toxic doses and inconclusive results are not listed. No stated cut-off is given here; in the data, active means T/C of 150% or more; inactive means T/C below 125%.

System: L1210 leukemia ip in BDF1 mice, survival T/C
Experiment: NCI In Vivo Anticancer Drug Screen. Data for tumor model L1210 Leukemia (intraperitoneal) in B6D2F1 (BDF1) mice
Conditions: endpoint: mean survival time, higher = longer survival
Method in brief: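 Each compound was tested against a transplantable tumor grown in mice. The endpoint was survival, with treated animals benchmarked against vehicle controls as a simple ratio.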

[1] = dose: 100.0 mg/kg/injection, schedule: Q01DX009 (ip), vehicle: saline with Tween-80
[2] = dose: 100.0 mg/kg/injection, schedule: Q04DX003 (ip), vehicle: Klucel (hydroxypropylcellulose) (HPC)
[3] = dose: 100.0 mg/kg/injection, schedule: Q04DX003 (ip), vehicle: saline with Tween-80
[4] = dose: 200.0 mg/kg/injection, schedule: Q01DX009 (ip), vehicle: saline with Tween-80
[5] = dose: 200.0 mg/kg/injection, schedule: Q04DX003 (ip), vehicle: saline with Tween-80
[6] = dose: 400.0 mg/kg/injection, schedule: Q01DX009 (ip), vehicle: saline with Tween-80
[7] = dose: 400.0 mg/kg/injection, schedule: Q04DX003 (ip), vehicle: Klucel (hydroxypropylcellulose) (HPC)
[8] = dose: 400.0 mg/kg/injection, schedule: Q04DX003 (ip), vehicle: saline with Tween-80
[9] = dose: 100.0 mg/kg/injection, schedule: Q01DX009 (ip), vehicle: Klucel (hydroxypropylcellulose) (HPC)
[10] = dose: 200.0 mg/kg/injection, schedule: Q01DX009 (ip), vehicle: Klucel (hydroxypropylcellulose) (HPC)
[11] = dose: 200.0 mg/kg/injection, schedule: Q04DX003 (ip), vehicle: Klucel (hydroxypropylcellulose) (HPC)
[12] = dose: 400.0 mg/kg/injection, schedule: Q01DX009 (ip), vehicle: Klucel (hydroxypropylcellulose) (HPC)
[13] = dose: 100.0 mg/kg/injection, schedule: Q01DX009 (ip), vehicle: saline
[14] = dose: 100.0 mg/kg/injection, schedule: Q04DX003 (ip), vehicle: saline
[15] = dose: 200.0 mg/kg/injection, schedule: Q01DX009 (ip), vehicle: saline
[16] = dose: 200.0 mg/kg/injection, schedule: Q04DX003 (ip), vehicle: saline
[17] = dose: 400.0 mg/kg/injection, schedule: Q01DX009 (ip), vehicle: saline
[18] = dose: 400.0 mg/kg/injection, schedule: Q04DX003 (ip), vehicle: saline
[19] = dose: 100.0 mg/kg/injection, schedule: Q01DX001 (ip), vehicle: Klucel (hydroxypropylcellulose) (HPC)
[20] = dose: 200.0 mg/kg/injection, schedule: Q01DX001 (ip), vehicle: Klucel (hydroxypropylcellulose) (HPC)
[21] = dose: 400.0 mg/kg/injection, schedule: Q01DX001 (ip), vehicle: Klucel (hydroxypropylcellulose) (HPC)

Measured: T/C

O=C1C(Br)=Cc2cccc3cccc1c23
inactive: dose: 25.0 mg/kg/injection, schedule: Q01DX009 (ip), vehicle: saline sonified 100 % of control | dose: 50.0 mg/kg/injection, schedule: Q01DX009 (ip), vehicle: saline sonified 97 % of control | dose: 100.0 mg/kg/injection, schedule: Q01DX009 (ip), vehicle: saline sonified 100 % of control | [1] 101 % of control | [2] 90 % of control | [3] 97 % of control | [4] 104 % of control | [5] 95 % of control | [6] 97 % of control | [7] 87 % of control | [8] 103 % of control

CN(C)c1ccc(C=Nc2ccc3c(c2)Cc2ccccc2-3)cc1
inactive: [9] 97 % of control | [2] 94 % of control | [10] 95 % of control | [11] 107 % of control | [12] 90 % of control | [7] 97 % of control

CCOC(=O)c1c[nH]c2ccc(OC)cc2c1=O
inactive: [13] 96 % of control | [14] 98 % of control | [15] 98 % of control | [16] 102 % of control | [17] 96 % of control | [18] 100 % of control

Cc1c(Cl)cccc1NC(=O)c1cccc([N+](=O)[O-])c1
inactive: [9] 103 % of control | [2] 96 % of control | [10] 95 % of control | [11] 93 % of control | [12] 94 % of control | [7] 91 % of control

CCCNC(=O)c1ccc(NCc2cnc3nc(N)nc(N)c3n2)cc1
inactive: [19] 92 % of control | [20] 100 % of control | [21] 98 % of control

O=C(O)c1cccc2c1ccc1ccccc12
inactive: dose: 75.0 mg/kg/injection, schedule: Q04DX003 (ip), vehicle: saline 104 % of control | dose: 150.0 mg/kg/injection, schedule: Q04DX003 (ip), vehicle: saline 102 % of control | dose: 300.0 mg/kg/injection, schedule: Q04DX003 (ip), vehicle: saline 100 % of control

Cc1c2ccccc2c(C)c2c1c(F)cc1ccccc12
inactive: dose: 37.5 mg/kg/injection, schedule: Q01DX001 (ip), vehicle: Klucel (hydroxypropylcellulose) (HPC) 120 % of control

CC(=O)Oc1ccc2c(c1)C1(C)CCCC(C)(C(=O)O)C1CC2 (stereo unspecified)
inactive: [3] 92 % of control | [5] 97 % of control | [8] 94 % of control

CCOC(=O)c1cnc(=O)[nH]c1Nc1ccccc1Br
inactive: dose: 100.0 mg/kg/injection, schedule: Q04DX003 (ip), vehicle: gum acacia 95 % of control | dose: 200.0 mg/kg/injection, schedule: Q04DX003 (ip), vehicle: gum acacia 90 % of control | dose: 400.0 mg/kg/injection, schedule: Q04DX003 (ip), vehicle: gum acacia 95 % of control

Cc1noc(C)c1C=O
inactive: [2] 102 % of control | [11] 95 % of control

S=C1SCN(C(c2ccccc2)c2ccccc2)CN1C(c1ccccc1)c1ccccc1
inactive: [3] 95 % of control | [5] 94 % of control | [8] 96 % of control

CC1CN=C(c2ccc(Br)cc2)O1 (stereo unspecified)
inactive: [1] 105 % of control | [4] 89 % of control

COc1ccc(/C(C)=C\C(=O)O)cc1
inactive: [1] 96 % of control | [3] 107 % of control | [4] 102 % of control | [5] 113 % of control | [6] 101 % of control | [8] 115 % of control

Cc1cc(C)nc(NCCCC(N)C(=O)O)n1 (stereo unspecified)
inactive: dose: 100.0 mg/kg/injection, schedule: Q04DX002 (ip), vehicle: saline with Tween-80 100 % of control | dose: 200.0 mg/kg/injection, schedule: Q04DX002 (ip), vehicle: saline with Tween-80 95 % of control | dose: 400.0 mg/kg/injection, schedule: Q04DX002 (ip), vehicle: saline with Tween-80 92 % of control

COc1ccc2oc(C(=O)O)cc2c1
inactive: dose: 100.0 mg/kg/injection, schedule: Q04DX003 (ip), vehicle: acetone 101 % of control | dose: 200.0 mg/kg/injection, schedule: Q04DX003 (ip), vehicle: acetone 101 % of control | dose: 400.0 mg/kg/injection, schedule: Q04DX003 (ip), vehicle: acetone 101 % of control

CC1Nc2ccccc2N2C(=O)CCC12 (stereo unspecified)
inactive: dose: 50.0 mg/kg/injection, schedule: Q01DX009 (ip), vehicle: Klucel (hydroxypropylcellulose) (HPC) 106 % of control | [9] 103 % of control | [10] 106 % of control

N#Cc1cccc(NC(=O)COc2cccc(Cl)c2)c1
inactive: [19] 94 % of control | [20] 87 % of control | [21] 90 % of control

C=CCC(CC)(C(=O)OCC)C(=O)OCC
inactive: [13] 107 % of control | [14] 102 % of control | [15] 98 % of control | [16] 113 % of control | [17] 95 % of control | [18] 96 % of control

CC(=O)CC(=O)NC1CCCC1
inactive: [9] 103 % of control | [2] 100 % of control | [10] 100 % of control | [11] 100 % of control | [12] 100 % of control | [7] 100 % of control

Cc1cc(C)cc(N=Cc2ccccc2)c1
inactive: dose: 50.0 mg/kg/injection, schedule: Q01DX001 (ip), vehicle: saline with Tween-80 98 % of control | dose: 100.0 mg/kg/injection, schedule: Q01DX001 (ip), vehicle: saline with Tween-80 98 % of control | dose: 200.0 mg/kg/injection, schedule: Q01DX001 (ip), vehicle: saline with Tween-80 95 % of control

Nc1ccc(C(=O)Oc2ccc([N+](=O)[O-])cc2)c(O)c1
inactive: [9] 95 % of control | [2] 100 % of control | [10] 97 % of control | [11] 88 % of control | [12] 87 % of control | [7] 96 % of control

O=C(NCCCl)N(c1ccccc1)c1cccc(C(F)(F)F)c1
inactive: dose: 100.0 mg/kg/injection, schedule: Q01DX005 (ip), vehicle: Klucel (hydroxypropylcellulose) (HPC) 102 % of control | [9] 98 % of control | dose: 100.0 mg/kg/injection, schedule: Q04DX002 (ip), vehicle: Klucel (hydroxypropylcellulose) (HPC) 114 % of control | dose: 200.0 mg/kg/injection, schedule: Q01DX005 (ip), vehicle: Klucel (hydroxypropylcellulose) (HPC) 91 % of control | [10] 98 % of control | dose: 200.0 mg/kg/injection, schedule: Q04DX002 (ip), vehicle: Klucel (hydroxypropylcellulose) (HPC) 96 % of control | dose: 400.0 mg/kg/injection, schedule: Q01DX005 (ip), vehicle: Klucel (hydroxypropylcellulose) (HPC) 94 % of control | [12] 98 % of control | dose: 400.0 mg/kg/injection, schedule: Q04DX002 (ip), vehicle: Klucel (hydroxypropylcellulose) (HPC) 104 % of control

Clc1ccc(N=Cc2ccccc2)cn1
inactive: dose: 50.0 mg/kg/injection, schedule: Q01DX001 (ip), vehicle: carboxymethylcellulose (CMC) 105 % of control | dose: 100.0 mg/kg/injection, schedule: Q01DX001 (ip), vehicle: carboxymethylcellulose (CMC) 88 % of control | dose: 200.0 mg/kg/injection, schedule: Q01DX001 (ip), vehicle: carboxymethylcellulose (CMC) 111 % of control | dose: 400.0 mg/kg/injection, schedule: Q01DX001 (ip), vehicle: carboxymethylcellulose (CMC) 100 % of control
